Measured values reported in article PMC5362750, “Discovery of Potent, Selective, and Orally Bioavailable Small-Molecule Modulators of the Mediator Complex-Associated Kinases CDK8 and CDK19” (Journal of Medicinal Chemistry, 2016).
Where two headings read alike, the source gives them in different places.

How the values were obtained:
UT (h) = target: T1, UT (h) (Homo sapiens, UniProt Q9UKP6); test: CEREP binding assay; settings: agonist radioligand, read-out: % Inhibition of Control Specific Binding
T1 construct: CEREP

EPHA2 = EPHA2 (Homo sapiens, UniProt P29317); test: Kinase panel (Millipore); assay type: biochemical; settings: 1 µM, ATP at Km
EPHA3 = target: T2, EPHA3 (Homo sapiens, UniProt P29320); test: Kinase panel (Millipore); assay type: biochemical; settings: 1 µM, ATP at Km
T2 construct: purchased Millipore (KinaseProfiler) kinase panel

EPHA5 = target: T3, EPHA5 (Homo sapiens, UniProt P54756); test: Kinase panel (Millipore); assay type: biochemical; settings: 1 µM, ATP at Km
T3 construct: purchased Millipore (KinaseProfiler) kinase panel

LYN = LYN (Homo sapiens, UniProt P07948); test: Kinase panel (Millipore); assay type: biochemical; settings: 1 µM, ATP at Km
BTK = BTK (Homo sapiens, UniProt Q06187); test: Kinase panel (Millipore); assay type: biochemical; settings: 1 µM, ATP at Km
MSK2 = target: T4, MSK2 (Homo sapiens, UniProt O75676); test: Kinase panel (Millipore); assay type: biochemical; settings: 1 µM, ATP at Km
T4 construct: purchased Millipore (KinaseProfiler) kinase panel

CHK2 = target: T5, CHK2 (Homo sapiens, UniProt O96017); test: Kinase panel (Millipore); assay type: biochemical; settings: 1 µM, ATP at Km
T5 construct: purchased Millipore (KinaseProfiler) kinase panel

HCK = HCK (Homo sapiens, UniProt P08631); test: Kinase panel (Millipore); assay type: biochemical; settings: 1 µM, ATP at Km
MST1 = MST1 (Homo sapiens, UniProt Q13043); test: Kinase panel (Millipore); assay type: biochemical; settings: 1 µM, ATP at Km
MUSK = target: T6, MUSK (Homo sapiens, UniProt O15146); test: Kinase panel (Millipore); assay type: biochemical; settings: 1 µM, ATP at Km
T6 construct: purchased Millipore (KinaseProfiler) kinase panel

CSK = CSK (Homo sapiens, UniProt P41240); test: Kinase panel (Millipore); assay type: biochemical; settings: 1 µM, ATP at Km
NLK = target: T7, NLK (Homo sapiens, UniProt Q9UBE8); test: Kinase panel (Millipore); assay type: biochemical; settings: 1 µM, ATP at Km
T7 construct: purchased Millipore (KinaseProfiler) kinase panel

JAK2 = target: T8, JAK2 (Homo sapiens, UniProt O60674); test: Kinase panel (Millipore); assay type: biochemical; settings: 1 µM, ATP at Km
T8 construct: purchased Millipore (KinaseProfiler) kinase panel

JAK3 = target: T9, JAK3 (Homo sapiens, UniProt P52333); test: Kinase panel (Millipore); assay type: biochemical; settings: 1 µM, ATP at Km
T9 construct: purchased Millipore (KinaseProfiler) kinase panel

PAK5 = PAK5 (Homo sapiens, UniProt Q9P286); test: Kinase panel (Millipore); assay type: biochemical; settings: 1 µM, ATP at Km
RSK2 = RSK2 (Homo sapiens, UniProt P51812); test: Kinase panel (Millipore); assay type: biochemical; settings: 1 µM, ATP at Km
PDGFRALPHA = target: T10, PDGFRALPHA (Homo sapiens, UniProt P16234); test: Kinase panel (Millipore); assay type: biochemical; settings: 1 µM, ATP at Km
T10 construct: purchased Millipore (KinaseProfiler) kinase panel

SAPK2A = SAPK2A (Homo sapiens, UniProt Q16539); test: Kinase panel (Millipore); assay type: biochemical; settings: 1 µM, ATP at Km
CAMKIDELTA = CAMKIDELTA (Homo sapiens, UniProt Q8IU85); test: Kinase panel (Millipore); assay type: biochemical; settings: 1 µM, ATP at Km
TAO2 = target: T11, TAO2 (Homo sapiens, UniProt Q9UL54); test: Kinase panel (Millipore); assay type: biochemical; settings: 1 µM, ATP at Km
T11 construct: purchased Millipore (KinaseProfiler) kinase panel

PKCDELTA = PKCDELTA (Homo sapiens, UniProt Q05655); test: Kinase panel (Millipore); assay type: biochemical; settings: 1 µM, ATP at Km
SRC(1-530) = SRC(1-530) (Homo sapiens, UniProt P12931); test: Kinase panel (Millipore); assay type: biochemical; settings: 1 µM, ATP at Km
PRKCQ = target: T12, PRKCQ (Homo sapiens, UniProt Q04759); test: Kinase panel (Millipore); assay type: biochemical; settings: 1 µM, ATP at Km
T12 construct: purchased Millipore (KinaseProfiler) kinase panel

PRAK = target: T13, PRAK (Homo sapiens, UniProt Q8IW41); test: Kinase panel (Millipore); assay type: biochemical; settings: 1 µM, ATP at Km
T13 construct: purchased Millipore (KinaseProfiler) kinase panel

ULK2 = target: T14, ULK2 (Homo sapiens, UniProt Q8IYT8); test: Kinase panel (Millipore); assay type: biochemical; settings: 1 µM, ATP at Km
T14 construct: purchased Millipore (KinaseProfiler) kinase panel

CLK3 = target: T15, CLK3 (Homo sapiens, UniProt P49761); test: Kinase panel (Millipore); assay type: biochemical; settings: 1 µM, ATP at Km
T15 construct: purchased Millipore (KinaseProfiler) kinase panel

RSK1 = target: T16, RSK1 (Homo sapiens, UniProt Q15418); test: Kinase panel (Millipore); assay type: biochemical; settings: 1 µM, ATP at Km
T16 construct: purchased Millipore (KinaseProfiler) kinase panel

IGF-1R, ACTIVATED = target: T17, IGF-1R, ACTIVATED (Homo sapiens, UniProt P08069); test: Kinase panel (Millipore); assay type: biochemical; settings: 1 µM, ATP at Km
T17 construct: purchased Millipore (KinaseProfiler) kinase panel

[1] = male, Wistar, rat, in vivo
NMDA = settings: 10 µM, antagonist radioligand
CKIT(D816V) = CKIT(D816V) (Homo sapiens, UniProt P10721, D816V); settings: 1 µM, ATP at Km
FLT3(D835Y) = FLT3(D835Y) (Homo sapiens, UniProt P36888, D835Y); settings: 1 µM, ATP at Km
FGFR2(N549H) = FGFR2(N549H) (Homo sapiens, UniProt P21802, N549H); settings: 1 µM, ATP at Km
CKIT(V560G) = CKIT(V560G) (Homo sapiens, UniProt P10721, V560G); settings: 1 µM, ATP at Km
cMET (D1246H) = cMET (D1246H) (Homo sapiens, UniProt P08581, D1228H); settings: 1 µM, ATP at Km
cMET (M1268T) = cMET (M1268T) (Homo sapiens, UniProt P08581, M1250T); settings: 1 µM, ATP at Km
in vivo = settings: male, rat, 0.2 mg/kg
D2S (h) = D2S (h) (Homo sapiens, UniProt P14416); test: biochemical; settings: read-out: % Inhibition of Control Specific Binding
N muscle-type (h) = N muscle-type (h) (Homo sapiens, UniProt P02708+P07510+Q07001); test: biochemical; settings: read-out: % Inhibition of Control Specific Binding

T11 sequence (Q9UL54 whole entry): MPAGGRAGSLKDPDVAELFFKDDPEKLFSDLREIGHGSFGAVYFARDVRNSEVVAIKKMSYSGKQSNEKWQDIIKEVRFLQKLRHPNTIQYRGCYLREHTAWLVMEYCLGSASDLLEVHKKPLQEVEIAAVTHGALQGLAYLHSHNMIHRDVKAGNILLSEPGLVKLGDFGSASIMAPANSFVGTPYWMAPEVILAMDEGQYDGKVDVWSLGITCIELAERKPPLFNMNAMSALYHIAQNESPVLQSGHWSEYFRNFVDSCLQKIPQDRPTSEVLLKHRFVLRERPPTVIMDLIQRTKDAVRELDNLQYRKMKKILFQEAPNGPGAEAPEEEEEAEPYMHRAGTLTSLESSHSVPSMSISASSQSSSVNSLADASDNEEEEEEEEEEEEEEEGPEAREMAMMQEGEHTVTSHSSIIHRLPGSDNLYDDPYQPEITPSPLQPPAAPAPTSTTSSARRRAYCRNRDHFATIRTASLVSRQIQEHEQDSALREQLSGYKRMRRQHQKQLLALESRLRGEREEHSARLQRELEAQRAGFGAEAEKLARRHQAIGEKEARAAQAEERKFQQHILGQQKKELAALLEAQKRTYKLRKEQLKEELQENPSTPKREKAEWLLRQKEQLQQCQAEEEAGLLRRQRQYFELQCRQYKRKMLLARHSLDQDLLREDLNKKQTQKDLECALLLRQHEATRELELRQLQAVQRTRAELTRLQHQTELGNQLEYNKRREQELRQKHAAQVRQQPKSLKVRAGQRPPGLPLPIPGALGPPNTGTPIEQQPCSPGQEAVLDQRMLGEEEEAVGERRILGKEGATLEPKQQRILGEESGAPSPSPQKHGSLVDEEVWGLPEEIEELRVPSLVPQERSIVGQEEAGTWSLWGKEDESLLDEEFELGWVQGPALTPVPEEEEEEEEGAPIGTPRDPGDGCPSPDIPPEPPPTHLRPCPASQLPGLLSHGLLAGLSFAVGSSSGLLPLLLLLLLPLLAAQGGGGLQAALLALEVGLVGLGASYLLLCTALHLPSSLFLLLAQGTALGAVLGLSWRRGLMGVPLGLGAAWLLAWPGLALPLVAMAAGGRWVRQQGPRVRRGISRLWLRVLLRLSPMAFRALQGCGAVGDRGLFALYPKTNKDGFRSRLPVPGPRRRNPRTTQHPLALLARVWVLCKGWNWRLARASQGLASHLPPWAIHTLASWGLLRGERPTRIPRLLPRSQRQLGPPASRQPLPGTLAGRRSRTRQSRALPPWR
T4 sequence (O75676 whole entry): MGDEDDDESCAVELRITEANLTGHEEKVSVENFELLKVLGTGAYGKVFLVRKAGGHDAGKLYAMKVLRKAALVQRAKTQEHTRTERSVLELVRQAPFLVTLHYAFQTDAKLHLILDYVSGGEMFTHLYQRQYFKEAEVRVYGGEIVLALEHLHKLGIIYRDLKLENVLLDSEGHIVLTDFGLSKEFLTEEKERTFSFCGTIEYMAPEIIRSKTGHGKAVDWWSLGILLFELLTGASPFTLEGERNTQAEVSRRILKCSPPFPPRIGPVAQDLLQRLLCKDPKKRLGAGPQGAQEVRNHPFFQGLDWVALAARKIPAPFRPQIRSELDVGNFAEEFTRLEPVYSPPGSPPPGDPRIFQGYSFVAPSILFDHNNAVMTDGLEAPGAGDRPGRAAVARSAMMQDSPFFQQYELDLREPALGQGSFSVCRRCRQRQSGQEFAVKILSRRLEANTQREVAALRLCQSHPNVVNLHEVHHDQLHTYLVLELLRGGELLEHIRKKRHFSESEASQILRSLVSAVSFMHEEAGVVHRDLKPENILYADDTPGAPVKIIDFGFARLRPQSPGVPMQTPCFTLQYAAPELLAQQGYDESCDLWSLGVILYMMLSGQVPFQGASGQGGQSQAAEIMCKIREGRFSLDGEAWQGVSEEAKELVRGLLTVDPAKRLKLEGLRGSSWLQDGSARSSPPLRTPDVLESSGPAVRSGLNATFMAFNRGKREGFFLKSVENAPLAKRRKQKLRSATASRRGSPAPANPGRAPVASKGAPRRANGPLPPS
T8 sequence (O60674 whole entry): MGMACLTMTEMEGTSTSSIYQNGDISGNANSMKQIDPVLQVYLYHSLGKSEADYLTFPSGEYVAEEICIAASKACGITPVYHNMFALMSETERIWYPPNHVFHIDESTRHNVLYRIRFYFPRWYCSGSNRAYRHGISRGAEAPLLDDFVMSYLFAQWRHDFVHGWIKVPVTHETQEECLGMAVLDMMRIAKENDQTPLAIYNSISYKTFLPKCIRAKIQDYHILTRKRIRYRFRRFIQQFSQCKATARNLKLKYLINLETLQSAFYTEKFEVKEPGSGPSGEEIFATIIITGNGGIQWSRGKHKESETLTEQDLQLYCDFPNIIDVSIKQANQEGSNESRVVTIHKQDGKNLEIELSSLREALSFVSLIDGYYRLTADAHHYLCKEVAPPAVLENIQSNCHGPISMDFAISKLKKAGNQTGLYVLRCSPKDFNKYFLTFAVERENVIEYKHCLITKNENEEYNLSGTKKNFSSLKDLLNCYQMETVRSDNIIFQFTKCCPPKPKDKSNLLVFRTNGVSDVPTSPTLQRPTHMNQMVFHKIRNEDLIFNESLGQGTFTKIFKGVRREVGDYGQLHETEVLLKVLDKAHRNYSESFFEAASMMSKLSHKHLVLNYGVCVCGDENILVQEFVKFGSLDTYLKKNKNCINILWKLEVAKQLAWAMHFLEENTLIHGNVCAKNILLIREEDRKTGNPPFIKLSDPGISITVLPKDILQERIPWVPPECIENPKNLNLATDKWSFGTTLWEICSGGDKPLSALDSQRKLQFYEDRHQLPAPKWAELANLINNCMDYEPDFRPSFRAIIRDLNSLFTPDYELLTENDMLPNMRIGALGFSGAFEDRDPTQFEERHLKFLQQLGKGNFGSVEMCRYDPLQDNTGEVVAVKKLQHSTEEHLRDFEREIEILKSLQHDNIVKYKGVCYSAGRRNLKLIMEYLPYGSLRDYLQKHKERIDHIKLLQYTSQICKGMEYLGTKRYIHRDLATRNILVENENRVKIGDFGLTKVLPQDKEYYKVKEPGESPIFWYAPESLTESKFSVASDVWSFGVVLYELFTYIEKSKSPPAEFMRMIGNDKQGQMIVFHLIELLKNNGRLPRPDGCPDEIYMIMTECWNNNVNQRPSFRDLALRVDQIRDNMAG
Sequence of RSK2 (P51812 whole entry): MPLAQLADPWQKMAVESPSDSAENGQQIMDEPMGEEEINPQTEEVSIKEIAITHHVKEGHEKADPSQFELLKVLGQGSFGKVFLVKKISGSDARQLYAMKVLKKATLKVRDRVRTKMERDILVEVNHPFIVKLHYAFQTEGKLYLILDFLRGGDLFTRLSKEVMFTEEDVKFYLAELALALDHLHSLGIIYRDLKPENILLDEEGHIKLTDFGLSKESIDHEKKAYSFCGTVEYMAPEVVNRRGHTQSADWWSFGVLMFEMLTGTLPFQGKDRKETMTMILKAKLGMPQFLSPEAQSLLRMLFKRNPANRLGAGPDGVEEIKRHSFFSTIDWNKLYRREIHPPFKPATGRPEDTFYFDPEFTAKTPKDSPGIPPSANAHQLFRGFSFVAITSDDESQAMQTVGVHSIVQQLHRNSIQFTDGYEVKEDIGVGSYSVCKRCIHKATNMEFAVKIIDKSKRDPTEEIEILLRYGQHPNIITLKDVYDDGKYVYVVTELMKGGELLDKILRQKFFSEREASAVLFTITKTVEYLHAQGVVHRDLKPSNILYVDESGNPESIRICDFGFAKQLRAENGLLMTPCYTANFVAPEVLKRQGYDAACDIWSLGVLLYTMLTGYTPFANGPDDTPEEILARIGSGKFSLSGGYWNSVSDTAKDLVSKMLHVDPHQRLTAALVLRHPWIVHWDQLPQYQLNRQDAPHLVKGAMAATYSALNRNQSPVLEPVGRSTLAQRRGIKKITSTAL
T7 sequence (Q9UBE8 whole entry): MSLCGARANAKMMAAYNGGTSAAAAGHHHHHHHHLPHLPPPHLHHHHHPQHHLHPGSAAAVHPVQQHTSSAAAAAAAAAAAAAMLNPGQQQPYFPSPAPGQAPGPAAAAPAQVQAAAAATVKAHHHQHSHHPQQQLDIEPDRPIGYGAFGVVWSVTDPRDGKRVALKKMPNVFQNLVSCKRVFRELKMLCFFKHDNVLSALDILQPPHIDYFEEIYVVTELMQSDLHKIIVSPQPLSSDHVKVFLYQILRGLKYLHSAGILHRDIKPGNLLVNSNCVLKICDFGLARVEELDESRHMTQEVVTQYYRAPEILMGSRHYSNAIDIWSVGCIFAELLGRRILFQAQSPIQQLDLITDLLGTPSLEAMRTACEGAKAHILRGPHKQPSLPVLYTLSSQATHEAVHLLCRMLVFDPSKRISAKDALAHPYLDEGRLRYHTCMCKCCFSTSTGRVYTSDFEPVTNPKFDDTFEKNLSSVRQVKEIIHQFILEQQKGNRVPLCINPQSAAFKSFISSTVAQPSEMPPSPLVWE
T15 sequence (P49761 whole entry): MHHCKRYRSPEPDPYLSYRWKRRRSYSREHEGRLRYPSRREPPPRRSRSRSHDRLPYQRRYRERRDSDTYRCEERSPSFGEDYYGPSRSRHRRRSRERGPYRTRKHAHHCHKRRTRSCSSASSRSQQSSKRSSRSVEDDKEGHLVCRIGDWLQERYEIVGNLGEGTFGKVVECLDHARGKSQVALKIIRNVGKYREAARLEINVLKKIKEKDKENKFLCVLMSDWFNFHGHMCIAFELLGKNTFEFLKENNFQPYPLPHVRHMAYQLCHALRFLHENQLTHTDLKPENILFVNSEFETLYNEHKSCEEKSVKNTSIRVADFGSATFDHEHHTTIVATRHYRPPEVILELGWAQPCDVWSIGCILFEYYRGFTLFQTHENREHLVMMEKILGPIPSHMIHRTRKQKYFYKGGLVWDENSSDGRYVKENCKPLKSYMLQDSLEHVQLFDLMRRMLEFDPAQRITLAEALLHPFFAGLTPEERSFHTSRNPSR

## Cn1ncc2cc(-c3cnc(N)c(Cl)c3N3CCC4(CCNC4=O)CC3)ccc21 [Compound 109, 8-(2-Amino-3-chloro-5-(1-methyl-1H-indazol-5-yl)pyridin-4-yl)-2,8-diazaspiro[4.5]decan-1-one]
UT (h)
  inhibition at 10 µM: 33%
EPHA2
  % effect: 5%
EPHA3
  % effect: 5%
EPHA5
  % effect: -9%
LYN
  % effect: -3%
BTK
  % effect: 6%
MSK2
  % effect: 5%
CHK2
  % effect: -2%
HCK
  % effect: -4%
MST1
  % effect: 4%
MUSK
  % effect: 3%
CSK
  % effect: 8%
NLK
  % effect: -5%
JAK2
  % effect: -20%
JAK3
  % effect: 4%
PAK5
  % effect: -11%
RSK2
  % effect: -11%
PDGFRALPHA
  % effect: 10%
SAPK2A
  % effect: -6%
CAMKIDELTA
  % effect: 8%
TAO2
  % effect: 2%
PKCDELTA
  % effect: 6%
SRC(1-530)
  % effect: 0%
PRKCQ
  % effect: -13%
PRAK
  % effect: 13%
ULK2
  % effect: 12%
CLK3
  % effect: 4%
RSK1
  % effect: 13%
IGF-1R, ACTIVATED
  % effect: 1%
[1]
  LBF: 34%
human
  Cl: ∼0.36 L/h/kg
  F: ∼70%
  Vd: ∼1.4 L/kg
  clearance prediction, allometry with correction by fu and BrW: 0.343 L/h/kg
  clearance prediction, allometry with correction by fu and MLP: 0.511 L/h/kg
  clearance prediction, iviv from hepatocytes: 0.215 L/h/kg
  volume prediction, range of allometry methods: 1.3 to 1.5 L/kg
Human prediction
  t1/2: ∼2.7 h
NMDA
  % Inhibition of Control Specific Binding: 0%
CKIT(D816V)
  % effect: -7%
FLT3(D835Y)
  % effect: 21%
FGFR2(N549H)
  % effect: 1%
CKIT(V560G)
  % effect: -5%
cMET (D1246H)
  % effect: -8%
cMET (M1268T)
  % effect: 1%
In vivo
  Vd: 2 L/kg
In vivo; iv
  clearance: 1.49 L/h/kg
D2S (h)
  inhibition at 10 µM: -5%
N muscle-type (h)
  inhibition at 10 µM: 11%
